Results published in patent publication US5770595A, “Oxime substituted therapeutic compounds” (Cell Therapeutics, Inc., priority 1994, dated 1998).

Tests used:
[1] = system: PBMC (peripheral blood mononuclear cells); assay: two-way mixed lymphocyte reaction; type: cell-based, human; details: Example 28; protocol similar to Example 10
Text: Various in vitro assays can be used to measure effects of the inventive compounds to module immune activity and have antitumor activity using a variety of cellular types. For example, a mixed lymphocyte reaction (MLR) provides a valuable screening tool to determine biological activity of each inventive compound. In the MLR, PBMCs (peripheral blood mononuclear cells) are obtained by drawing whole blood from healthy volunteers in a heparinized container and diluted with an equal volume of hanks balanced salt solution (HBSS). This mixture is layered on a sucrose density gradient, such as a Ficoll-Hypaque® gradient (specific gravity 1.08), and centrifuged at 1000×g for 25 minutes at room temperature or cooler. PBMC are obtained from a band at a plasma-Ficoll interface, separated and washed at least twice in a saline solution, such as HBSS. Contaminating red cells are lysed, such as by ACK lysis for 10 min at 37° C., and the PBMCs are washed twice in HBSS. The pellet of purified PBMCs is resuspended in complete medium, such as RPMI 1640 plus 20% human inactivated serum. Proliferative response of PBMC to allogeneic stimulation is determined in a two-way MLR performed in a 96-well microtiter plate. Briefly, approximately 10^5 test purified PBMC cells in 200 μl complete medium are co-cultured with approximately 10^5 autologous (control culture) or allogeneic (stimulated culture) PBMC cells, wherein the allogeneic cells are from HLA disparate individuals. Varying doses of compounds (drug) are added at the time of addition of cells to the microtiter plate. The cultures are incubated for 6 days at 37° C. in a 5% CO2 atmosphere. At the conclusion of the incubation tritiated thymidine is added (for example, 1 μCi/well of 40 to 60 Ci/mmole) and proliferation determined by liquid scintillation. counting.
Example 10 illustrates a mixed lymphocyte reaction of inventive compounds nos. 1521 and 1522 (see above for chemical name and structure). […] Both compounds nos. […]

[2] = system: murine thymocyte; assay: thymocyte proliferation stimulated by ConA and IL-2; type: cell-based, murine (female Balb/C mice); details: ConA, IL-2 15 U/ml; FIG. 18 (IC50 curve)
Description: A thymocyte costimulator assay is conducted to evaluate the inventive compounds to inhibit activation and proliferation of thymocytes caused by stimulation with Con A and interleukin-1 (IL-1), or […]. Thymuses are obtained from mice (e.g., female Balb/C mice) and the thymuses are removed and dissociated into culture media (e.g., RPMI 1640 without serum supplementation). The dissociated thymus tissue and cell suspension is transferred to centrifuge tubes and allowed to settle, washed with HBSS and resuspended in serum-supplemented culture media (e.g., RPMI 1640 with 10% fetal calf serum). Any contaminating red cells are lysed, and viable cells are resuspended and counted. Thymocytes are plated (e.g., 96-well plates at a density of 2×10^5 cells/well) and a stimulating agent, such as Con A, IL-1 (e.g., IL-1α) or IL-2 is added to the well. The cells are incubated for 4 days at 37° C. On the fourth day, the cells are pulsed with tritiated thymidine and cell proliferation determined. […]
1522 on inhibition of thymocyte proliferation stimulated by ConA and interleukin-2 (IL-2) (20 ng/ml). Compound no. […]
Thymuses, obtained from normal, female Balb/C mice, were dissociated and plated into 96-well plates at a density of 2×10^5 cells/well. […] The amount of tritiated thymidine dye incorporated by the harvested cells was determined in a liquid scintillation counter. […]

[3] = system: polymorphonuclear leukocytes; details: in response to a stimulator of chemotaxis; U.S. Pat. No. 4,636,507; cited from earlier work
[4] = U.S. Pat. Nos. 4,515,795 and 4,576,947; cited from earlier work
[5] = system: VCAM in HUVEC cells; assay: cell surface expression of VCAM in HUVEC; type: cell-based, human; details: protocol similar to Example 20; FIG. 17
Description: Drug inhibitory activity can also be measured by determining levels of vascular cell adhesion molecule (VCAM) in stimulated cells. Early passage human umbilical vein endothelial cells (HUVEC) (obtained from commercial suppliers such as Cell Systems, Inc. or Clonetics) are cultured in media (e.g., Hepes buffered media, Cell Systems) containing 10% fetal bovine serum, and supplemented with a stimulating agent, such as fibroblast growth factor (acidic FGF, Cell Systems, Inc.) or TNF. The cells are plated into wells of a microtiter plate (e.g., 5×10^4 per well) and allowed to incubate at 37° C. for 72 hrs. The resting cells are removed (e.g., 20-30 min treatment with 0.4% EDTA), washed in media (e.g., phosphate buffered saline plus 0.1% bovine serum albumin with 0.01% sodium azide) and labeled on ice with a monoclonal antibody ("first antibody") recognizing human VCAM (e.g., 1 μg of a murine monoclonal antibody recognizing human VCAM, Genzyme). After 60 min on ice, the cells are washed (preferably twice) with cold wash media and incubated with an antibody that recognizes the first antibody (e.g., 1 μg of goat anti-mouse IgG conjugated with phycoerythrin, CalTag, Inc.). After 30 min on ice, the cells are washed twice and analyzed on a flow cytometer (Coulter Elite®) at appropriate emission and excitation wavelengths (e.g., for phycoerytlrin use excitation at 488 nm and emission at 525 nm).
The cells were stimulated with human TNF-α (20 ng/ml) for 20 hours and then stained for immunofluorescence using a monoclonal antibody recognizing VCAM, followed by a goat anti-mouse antibody conjugated to phycoerythrin. The cells were analyzed for antibody binding using flow cytometry. […] 1521 and 1522 at the indicated drug concentrations.
This example was used to investigate inhibition of vascular cell adhesion molecule (VCAM) expression on HUVEC by inventive compound no. 2525. VCAM expression by endothelial cells is an early event in atherogenesis and multiple sclerosis, among other various autoimmune diseases. FIG. 17, a plot of percent surface expression versus concentration of compound no.

[6] = system: THP-1 cells / TNFα-activated HUVEC; assay: THP-1 cell adhesion to TNFα-activated HUVEC; type: cell-based, human; details: 0.1 to 10 μM
Text: This example illustrates inhibitive activity of inventive compound no. 2525 on THP-1 cell adhesion to TNFα-activated HUVEC. In an investigative assay, representative of the protocol employed in Example 23, HUVEC were stimulated with TNF α instead of IL-1β. As shown by results reported in FIG. 15, non-stimulated background adherence was approximately 1000 relative units, increasing to approximately 3000 under TNF stimulation.

[7] = system: THP-1 cells / IL-1β-activated HUVEC; assay: THP-1 cell adhesion to IL-1β-activated HUVEC; type: cell-based, human; details: IL-1β 10 ng/ml, 8 hours; between 1.0 and 10 μM
Description: This example illustrates inhibitive activity of inventive compound no. 2525 on THP-1 cell adhesion to IL-1β-activated HUVEC. In an investigative assay, HUVEC were stimulated with IL-1β (10 ng/ml), both in the absence and presence of varying concentrations of inventive compound for 8 hours in a 96-well microtiter plate. In the wellplate, human monocytic leukemia cell line THP-1 cells were added at 50,000 cells per well. The THP-1 cells were pre-incubated with BCECF, a fluorescence dye that can be use to measure cell number using a fluorescence plate reader. After 10 minutes at 37° C., the microtiter plate was inverted and spun at 900 rpm. The remaining adhering THP-1 cells were then analyzed. […] The inventive compound no.

[8] = system: ICAM in HUVEC cells; assay: cell surface expression of ICAM in HUVEC; type: cell-based; details: human TNF-α 20 ng/ml, 20 hours
Description: 2525 to inhibit cell surface expression of ICAM in HUVEC cells. The cells were stimulated with human TNF-α (20 ng/ml) for 20 hours and then stained for immunofluorescence using a monoclonal antibody recognizing ICAM, followed by a goat anti-mouse antibody conjugated to phycoerythrin. The cells were analyzed for antibody binding using flow cytometry. FIG. 16 reports % surface expression, determined by analysis of mean fluorescence intensity of cells analyzed by flow cytometry, for compound no. 2525, at concentration shown. As reported, compound no.

## CC(CCCCCCCCCn1c(=O)c2c(ncn2C)n(C)c1=O)=NO [compound 2514]
[1]
  proliferative response of lymphocytes in mixed lymphocyte reaction: showed activity in this immune modulating activity assay procedure
[2]
  inhibition of thymocyte proliferation, ConA + IL-2: inhibit thymocyte proliferation and activation

## CC(O)CCCCn1c(=O)c2c(ncn2C)n(C)c1=O (centres unmarked) [M1, 1-(5-hydroxyhexyl)-3,7-dimethylxanthine]
[3]
  stimulation of chemotaxis in polymorphonuclear leukocytes: stimulate chemotaxis in polymorphonuclear leukocytes
[4]
  cerebral blood flow: increasing cerebral blood flow

## CC(CCCCCCCCCCn1c(=O)c2c(ncn2C)n(C)c1=O)=NO [compound 2525]
[5]
  inhibition of VCAM surface expression: able to inhibit surface expression of VCAM
[6]
  inhibition of THP-1 adhesion to TNFα-activated HUVEC: significantly inhibited THP-1 adhesion
[7]
  inhibition of THP-1 adhesion to IL-1β-activated HUVEC: significantly inhibited THP-1 adhesion
[8]
  inhibition of ICAM surface expression: inhibited ICAM surface expression
